“And” between values parts separate entries of the source, which are not always exact repeats. Equal values may be shown once. Numbers after ± are expanded uncertainties.
Settings: Liquid, Closed cell (Static) method

Row | Structure (SMILES) | vapor or sublimation pressure (318.35 K) | vapor or sublimation pressure (346.97 K) | vapor or sublimation pressure (318.34 K) | vapor or sublimation pressure (347.06 K) | vapor or sublimation pressure (346.14 K) | vapor or sublimation pressure (347.07 K) | vapor or sublimation pressure (346.96 K)
1 | CCCC [butane] | 437.5 ± 1.6 kPa | 881.7 ± 2.8 kPa |  |  |  |  | 
2 | C/C=C/C [(E)-2-butene] |  |  | 423.5 ± 1.6 kPa | 868.5 ± 2.8 kPa |  |  | 
3 | C1CCSC1 [tetrahydrothiophene] | 6.9 ± 0.8 kPa and 6.7 ± 0.8 kPa | 22.2 ± 0.8 kPa and 22.5 ± 0.8 kPa | 7.3 ± 0.8 kPa |  | 21.4 ± 0.8 kPa | 22.2 ± 0.8 kPa | 
4 | CC(C)C [2-methylpropane] |  |  | 608.3 ± 2.1 kPa |  |  |  | 1177.5 ± 3.7 kPa
5 | C=C(C)C [2-methylpropene] | 542.1 ± 1.9 kPa |  |  |  | 1054.9 ± 3.4 kPa |  | 

Source: the NIST ThermoML archive (doi:10.1021/je800896m)
